Measured values as given in publication PMC4767141, “Discovery of Potent, Orally Bioavailable, Small-Molecule Inhibitors of WNT Signaling from a Cell-Based Pathway Screen” (Journal of Medicinal Chemistry, 2015).

Legend:
B2 (h) = molecular target: T1, B2 (h) (Homo sapiens, UniProt P30411); experiment: CEREP binding panel; details: agonist radioligand, read-out: % Inhibition of Control Specific Binding
T1 construct: purchased Millipore KinaseProfiler (kinases); Cerep (receptors and ion channels)

IRAK1 = molecular target: T2, IRAK1 (Homo sapiens, UniProt P51617); experiment: Millipore kinase panel; format: biochemical; details: read-out: % Control
T2 construct: purchased Millipore KinaseProfiler (kinases); Cerep (receptors and ion channels)

ALK = molecular target: T3, ALK (Homo sapiens, UniProt Q9UM73); experiment: Millipore kinase panel; format: biochemical; details: read-out: % Control
T3 construct: purchased Millipore KinaseProfiler (kinases); Cerep (receptors and ion channels)

FLT4 = molecular target: T4, FLT4 (Homo sapiens, UniProt P35916); experiment: Millipore kinase panel; format: biochemical; details: read-out: % Control
T4 construct: purchased Millipore KinaseProfiler (kinases); Cerep (receptors and ion channels)

5-HT7 (h) = molecular target: T5, 5-HT7 (h) (Homo sapiens, UniProt P34969); experiment: CEREP binding panel; details: agonist radioligand, read-out: % Inhibition of Control Specific Binding
T5 construct: purchased Millipore KinaseProfiler (kinases); Cerep (receptors and ion channels)

EEF-2K = molecular target: T6, EEF-2K (Homo sapiens, UniProt O00418); experiment: Millipore kinase panel; format: biochemical; details: read-out: % Control
T6 construct: purchased Millipore KinaseProfiler (kinases); Cerep (receptors and ion channels)

IR, ACTIVATED = molecular target: T7, IR, ACTIVATED (Homo sapiens, UniProt P06213); experiment: Millipore kinase panel; format: biochemical; details: read-out: % Control
T7 construct: purchased Millipore KinaseProfiler (kinases); Cerep (receptors and ion channels)

A2A (h) = molecular target: T8, A2A (h) (Homo sapiens, UniProt P29274); experiment: CEREP binding panel; details: agonist radioligand, read-out: % Inhibition of Control Specific Binding
T8 construct: purchased Millipore KinaseProfiler (kinases); Cerep (receptors and ion channels)

PKG1BETA = molecular target: T9, PKG1BETA (Homo sapiens, UniProt Q13976); experiment: Millipore kinase panel; format: biochemical; details: read-out: % Control
T9 construct: purchased Millipore

ABL = molecular target: T10, ABL (Homo sapiens, UniProt P00519); experiment: Millipore kinase panel; format: biochemical; details: read-out: % Control
T10 construct: purchased Millipore KinaseProfiler (kinases); Cerep (receptors and ion channels)

NEK3 = molecular target: T11, NEK3 (Homo sapiens, UniProt P51956); experiment: Millipore kinase panel; format: biochemical; details: read-out: % Control
T11 construct: purchased Millipore KinaseProfiler (kinases); Cerep (receptors and ion channels)

A1 (h) = molecular target: T12, A1 (h) (Homo sapiens, UniProt P30542); experiment: CEREP binding panel; details: antagonist radioligand, read-out: % Inhibition of Control Specific Binding
T12 construct: purchased Millipore KinaseProfiler (kinases); Cerep (receptors and ion channels)

SGK2 = molecular target: T13, SGK2 (Homo sapiens, UniProt Q9HBY8); experiment: Millipore kinase panel; format: biochemical; details: read-out: % Control
T13 construct: purchased Millipore KinaseProfiler (kinases); Cerep (receptors and ion channels)

EPHA5 = molecular target: T14, EPHA5 (Homo sapiens, UniProt P54756); experiment: Millipore kinase panel; format: biochemical; details: read-out: % Control
T14 construct: purchased Millipore KinaseProfiler (kinases); Cerep (receptors and ion channels)

ROCK-I = molecular target: T15, ROCK-I (Homo sapiens, UniProt Q13464); experiment: Millipore kinase panel; format: biochemical; details: read-out: % Control
T15 construct: purchased Millipore KinaseProfiler (kinases); Cerep (receptors and ion channels)

TBK1 = molecular target: T16, TBK1 (Homo sapiens, UniProt Q9UHD2); experiment: Millipore kinase panel; format: biochemical; details: read-out: % Control
T16 construct: purchased Millipore KinaseProfiler (kinases); Cerep (receptors and ion channels)

M2 (h) = molecular target: T17, M2 (h) (Homo sapiens, UniProt P08172); experiment: CEREP binding panel; details: antagonist radioligand, read-out: % Inhibition of Control Specific Binding
T17 construct: purchased Millipore KinaseProfiler (kinases); Cerep (receptors and ion channels)

sst (non-selective) = experiment: CEREP binding panel; details: 10 μM, agonist radioligand
DAPK2 = molecular target: T18, DAPK2 (Homo sapiens, UniProt Q9UIK4); experiment: Millipore kinase panel; format: biochemical; details: read-out: % Control
T18 construct: purchased Millipore KinaseProfiler (kinases); Cerep (receptors and ion channels)

JNK1ALPHA1 = molecular target: T19, JNK1ALPHA1 (Homo sapiens, UniProt P45983); experiment: Millipore kinase panel; format: biochemical; details: read-out: % Control
T19 construct: purchased Millipore KinaseProfiler (kinases); Cerep (receptors and ion channels)

PLK3 = molecular target: T20, PLK3 (Homo sapiens, UniProt Q9H4B4); experiment: Millipore kinase panel; format: biochemical; details: read-out: % Control
T20 construct: purchased Millipore KinaseProfiler (kinases); Cerep (receptors and ion channels)

BRSK2 = molecular target: T21, BRSK2 (Homo sapiens, UniProt Q8IWQ3); experiment: Millipore kinase panel; format: biochemical; details: read-out: % Control
T21 construct: purchased Millipore KinaseProfiler (kinases); Cerep (receptors and ion channels)

PRKX = molecular target: T22, PRKX (Homo sapiens, UniProt P51817); experiment: Millipore kinase panel; format: biochemical; details: read-out: % Control
T22 construct: purchased Millipore KinaseProfiler (kinases); Cerep (receptors and ion channels)

EPHA8 = molecular target: T23, EPHA8 (Homo sapiens, UniProt P29322); experiment: Millipore kinase panel; format: biochemical; details: read-out: % Control
T23 construct: purchased Millipore KinaseProfiler (kinases); Cerep (receptors and ion channels)

EGFR = molecular target: T24, EGFR (Homo sapiens, UniProt P00533); experiment: Millipore kinase panel; format: biochemical; details: read-out: % Control
T24 construct: purchased Millipore KinaseProfiler (kinases); Cerep (receptors and ion channels)

NEK2 = molecular target: T25, NEK2 (Homo sapiens, UniProt P51955); experiment: Millipore kinase panel; format: biochemical; details: read-out: % Control
T25 construct: purchased Millipore KinaseProfiler (kinases); Cerep (receptors and ion channels)

HIPK3 = molecular target: T26, HIPK3 (Homo sapiens, UniProt Q9H422); experiment: Millipore kinase panel; format: biochemical; details: read-out: % Control
T26 construct: purchased Millipore KinaseProfiler (kinases); Cerep (receptors and ion channels)

5-HT1B = molecular target: T27, 5-HT1B (Rattus norvegicus, UniProt P28564); experiment: CEREP binding panel; details: antagonist radioligand, read-out: % Inhibition of Control Specific Binding
T27 construct: purchased Millipore KinaseProfiler (kinases); Cerep (receptors and ion channels)

ITK = molecular target: T28, ITK (Homo sapiens, UniProt Q08881); experiment: Millipore kinase panel; format: biochemical; details: read-out: % Control
T28 construct: purchased Millipore KinaseProfiler (kinases); Cerep (receptors and ion channels)

5-HT transporter (h) = molecular target: T29, 5-HT transporter (h) (Homo sapiens, UniProt P31645); experiment: CEREP binding panel; details: antagonist radioligand, read-out: % Inhibition of Control Specific Binding
T29 construct: purchased Millipore KinaseProfiler (kinases); Cerep (receptors and ion channels)

TAO1 = molecular target: T30, TAO1 (Homo sapiens, UniProt Q7L7X3); experiment: Millipore kinase panel; format: biochemical; details: read-out: % Control
T30 construct: purchased Millipore KinaseProfiler (kinases); Cerep (receptors and ion channels)

PKA = molecular target: T31, PKA (Homo sapiens, UniProt P17612); experiment: Millipore kinase panel; format: biochemical; details: read-out: % Control
T31 construct: purchased Millipore KinaseProfiler (kinases); Cerep (receptors and ion channels)

SAPK4 = molecular target: T32, SAPK4 (Homo sapiens, UniProt O15264); experiment: Millipore kinase panel; format: biochemical; details: read-out: % Control
T32 construct: purchased Millipore KinaseProfiler (kinases); Cerep (receptors and ion channels)

PKCMU = molecular target: T33, PKCMU (Homo sapiens, UniProt Q15139); experiment: Millipore kinase panel; format: biochemical; details: read-out: % Control
T33 construct: purchased Millipore KinaseProfiler (kinases); Cerep (receptors and ion channels)

CAMKI = molecular target: T34, CAMKI (Homo sapiens, UniProt Q14012); experiment: Millipore kinase panel; format: biochemical; details: read-out: % Control
T34 construct: purchased Millipore KinaseProfiler (kinases); Cerep (receptors and ion channels)

PRK2 = molecular target: T35, PRK2 (Homo sapiens, UniProt Q16513); experiment: Millipore kinase panel; format: biochemical; details: read-out: % Control
T35 construct: purchased Millipore KinaseProfiler (kinases); Cerep (receptors and ion channels)

AXL = molecular target: T36, AXL (Homo sapiens, UniProt P30530); experiment: Millipore kinase panel; format: biochemical; details: read-out: % Control
T36 construct: purchased Millipore KinaseProfiler (kinases); Cerep (receptors and ion channels)

MKK4 = experiment: Millipore kinase panel; format: biochemical; details: 1 μM, ATP at Km
MUSK = molecular target: T37, MUSK (Homo sapiens, UniProt O15146); experiment: Millipore kinase panel; format: biochemical; details: read-out: % Control
T37 construct: purchased Millipore KinaseProfiler (kinases); Cerep (receptors and ion channels)

SKCa channel = experiment: CEREP binding panel; details: 10 μM, antagonist radioligand
PAK2 = molecular target: T38, PAK2 (Homo sapiens, UniProt Q13177); experiment: Millipore kinase panel; format: biochemical; details: read-out: % Control
T38 construct: purchased Millipore KinaseProfiler (kinases); Cerep (receptors and ion channels)

MAPK1 = molecular target: T39, MAPK1 (Homo sapiens, UniProt P27361); experiment: Millipore kinase panel; format: biochemical; details: read-out: % Control
T39 construct: purchased Millipore KinaseProfiler (kinases); Cerep (receptors and ion channels)

[1] = molecular target: T40, norepinephrine transporter (h) (Homo sapiens, UniProt P23975); experiment: CEREP binding panel; details: antagonist radioligand, read-out: % Inhibition of Control Specific Binding
T40 construct: purchased Millipore KinaseProfiler (kinases); Cerep (receptors and ion channels)

CDK3/CYCLINE = molecular target: T41, CDK3/CYCLINE (Homo sapiens, UniProt Q00526); experiment: Millipore kinase panel; format: biochemical; details: read-out: % Control
T41 construct: purchased Millipore KinaseProfiler (kinases); Cerep (receptors and ion channels)
T41 sequence (Q00526 whole entry): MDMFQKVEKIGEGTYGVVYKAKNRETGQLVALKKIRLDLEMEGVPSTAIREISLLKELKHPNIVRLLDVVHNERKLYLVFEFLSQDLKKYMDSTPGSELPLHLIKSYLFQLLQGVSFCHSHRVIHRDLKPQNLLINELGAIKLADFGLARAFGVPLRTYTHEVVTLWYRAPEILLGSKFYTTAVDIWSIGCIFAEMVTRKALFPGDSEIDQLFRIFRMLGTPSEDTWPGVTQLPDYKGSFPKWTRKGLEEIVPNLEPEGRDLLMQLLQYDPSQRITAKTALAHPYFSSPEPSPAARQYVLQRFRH
T41 sequence (P24864 whole entry partner): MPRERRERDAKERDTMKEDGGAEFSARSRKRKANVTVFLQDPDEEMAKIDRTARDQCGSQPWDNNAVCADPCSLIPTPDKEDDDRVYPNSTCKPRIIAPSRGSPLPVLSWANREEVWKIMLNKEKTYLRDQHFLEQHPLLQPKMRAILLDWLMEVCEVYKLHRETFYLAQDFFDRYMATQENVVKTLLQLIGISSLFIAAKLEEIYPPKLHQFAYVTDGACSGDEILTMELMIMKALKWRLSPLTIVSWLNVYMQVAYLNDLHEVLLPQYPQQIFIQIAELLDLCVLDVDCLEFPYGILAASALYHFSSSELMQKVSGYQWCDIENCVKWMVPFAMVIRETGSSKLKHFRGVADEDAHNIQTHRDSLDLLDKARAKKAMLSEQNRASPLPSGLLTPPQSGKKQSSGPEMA

T36 sequence (P30530 26-894): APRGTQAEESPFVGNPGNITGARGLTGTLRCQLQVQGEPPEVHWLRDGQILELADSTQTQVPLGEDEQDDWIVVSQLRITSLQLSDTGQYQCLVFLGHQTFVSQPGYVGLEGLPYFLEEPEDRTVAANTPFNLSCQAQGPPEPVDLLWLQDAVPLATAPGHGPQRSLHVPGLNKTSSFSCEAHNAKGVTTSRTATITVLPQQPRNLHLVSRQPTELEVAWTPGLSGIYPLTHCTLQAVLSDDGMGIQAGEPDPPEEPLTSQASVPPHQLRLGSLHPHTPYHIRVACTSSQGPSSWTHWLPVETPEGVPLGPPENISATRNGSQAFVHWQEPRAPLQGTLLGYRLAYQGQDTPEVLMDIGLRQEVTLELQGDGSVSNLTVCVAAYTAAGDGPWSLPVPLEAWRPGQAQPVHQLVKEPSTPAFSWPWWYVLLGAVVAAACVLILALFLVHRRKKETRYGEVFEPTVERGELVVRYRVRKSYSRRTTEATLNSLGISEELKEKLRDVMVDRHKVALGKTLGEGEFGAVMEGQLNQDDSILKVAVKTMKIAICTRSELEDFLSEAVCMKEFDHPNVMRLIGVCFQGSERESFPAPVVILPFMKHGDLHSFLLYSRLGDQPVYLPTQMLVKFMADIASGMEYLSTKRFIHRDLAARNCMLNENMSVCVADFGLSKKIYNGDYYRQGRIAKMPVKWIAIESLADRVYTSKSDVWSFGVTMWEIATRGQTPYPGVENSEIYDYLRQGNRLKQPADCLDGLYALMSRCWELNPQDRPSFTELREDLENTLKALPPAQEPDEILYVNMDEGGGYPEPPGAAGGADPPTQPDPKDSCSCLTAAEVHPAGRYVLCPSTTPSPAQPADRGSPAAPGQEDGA
T10 sequence (P00519 whole entry): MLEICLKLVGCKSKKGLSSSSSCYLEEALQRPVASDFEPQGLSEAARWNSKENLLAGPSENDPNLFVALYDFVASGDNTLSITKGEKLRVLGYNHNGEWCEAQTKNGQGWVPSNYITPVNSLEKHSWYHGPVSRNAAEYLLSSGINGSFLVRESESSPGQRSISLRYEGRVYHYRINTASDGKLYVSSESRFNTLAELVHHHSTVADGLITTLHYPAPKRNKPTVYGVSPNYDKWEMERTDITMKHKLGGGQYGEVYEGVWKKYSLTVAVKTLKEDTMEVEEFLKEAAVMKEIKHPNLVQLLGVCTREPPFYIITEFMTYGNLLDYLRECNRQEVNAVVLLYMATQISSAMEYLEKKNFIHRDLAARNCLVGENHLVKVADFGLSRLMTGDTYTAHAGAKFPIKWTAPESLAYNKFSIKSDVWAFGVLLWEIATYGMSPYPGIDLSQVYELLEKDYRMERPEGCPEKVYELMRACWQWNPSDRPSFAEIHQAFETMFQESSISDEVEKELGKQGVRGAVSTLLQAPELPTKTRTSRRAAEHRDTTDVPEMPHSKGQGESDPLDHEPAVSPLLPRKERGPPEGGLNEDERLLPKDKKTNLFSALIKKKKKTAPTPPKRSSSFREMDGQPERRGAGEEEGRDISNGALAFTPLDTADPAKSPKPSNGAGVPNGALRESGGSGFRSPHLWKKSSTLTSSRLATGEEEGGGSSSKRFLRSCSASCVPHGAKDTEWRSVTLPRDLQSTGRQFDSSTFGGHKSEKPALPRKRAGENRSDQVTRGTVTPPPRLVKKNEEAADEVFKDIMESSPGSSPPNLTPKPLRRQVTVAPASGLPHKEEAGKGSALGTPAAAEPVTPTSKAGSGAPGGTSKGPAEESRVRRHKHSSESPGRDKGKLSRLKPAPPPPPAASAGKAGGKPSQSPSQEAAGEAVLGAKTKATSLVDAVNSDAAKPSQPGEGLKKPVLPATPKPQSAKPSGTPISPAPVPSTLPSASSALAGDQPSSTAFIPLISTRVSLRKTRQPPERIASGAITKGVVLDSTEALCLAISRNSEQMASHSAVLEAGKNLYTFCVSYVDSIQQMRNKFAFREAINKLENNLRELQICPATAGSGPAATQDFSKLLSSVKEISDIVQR
T12 sequence (P30542 whole entry): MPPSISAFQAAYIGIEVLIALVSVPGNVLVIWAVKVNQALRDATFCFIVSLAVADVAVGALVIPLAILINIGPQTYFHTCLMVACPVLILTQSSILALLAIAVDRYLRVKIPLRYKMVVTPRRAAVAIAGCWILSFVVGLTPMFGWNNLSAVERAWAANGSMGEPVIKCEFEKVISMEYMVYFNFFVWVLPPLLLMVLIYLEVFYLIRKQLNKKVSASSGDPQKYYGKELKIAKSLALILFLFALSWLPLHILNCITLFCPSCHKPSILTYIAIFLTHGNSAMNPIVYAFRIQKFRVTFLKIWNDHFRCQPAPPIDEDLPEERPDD
T23 sequence (P29322 28-1005): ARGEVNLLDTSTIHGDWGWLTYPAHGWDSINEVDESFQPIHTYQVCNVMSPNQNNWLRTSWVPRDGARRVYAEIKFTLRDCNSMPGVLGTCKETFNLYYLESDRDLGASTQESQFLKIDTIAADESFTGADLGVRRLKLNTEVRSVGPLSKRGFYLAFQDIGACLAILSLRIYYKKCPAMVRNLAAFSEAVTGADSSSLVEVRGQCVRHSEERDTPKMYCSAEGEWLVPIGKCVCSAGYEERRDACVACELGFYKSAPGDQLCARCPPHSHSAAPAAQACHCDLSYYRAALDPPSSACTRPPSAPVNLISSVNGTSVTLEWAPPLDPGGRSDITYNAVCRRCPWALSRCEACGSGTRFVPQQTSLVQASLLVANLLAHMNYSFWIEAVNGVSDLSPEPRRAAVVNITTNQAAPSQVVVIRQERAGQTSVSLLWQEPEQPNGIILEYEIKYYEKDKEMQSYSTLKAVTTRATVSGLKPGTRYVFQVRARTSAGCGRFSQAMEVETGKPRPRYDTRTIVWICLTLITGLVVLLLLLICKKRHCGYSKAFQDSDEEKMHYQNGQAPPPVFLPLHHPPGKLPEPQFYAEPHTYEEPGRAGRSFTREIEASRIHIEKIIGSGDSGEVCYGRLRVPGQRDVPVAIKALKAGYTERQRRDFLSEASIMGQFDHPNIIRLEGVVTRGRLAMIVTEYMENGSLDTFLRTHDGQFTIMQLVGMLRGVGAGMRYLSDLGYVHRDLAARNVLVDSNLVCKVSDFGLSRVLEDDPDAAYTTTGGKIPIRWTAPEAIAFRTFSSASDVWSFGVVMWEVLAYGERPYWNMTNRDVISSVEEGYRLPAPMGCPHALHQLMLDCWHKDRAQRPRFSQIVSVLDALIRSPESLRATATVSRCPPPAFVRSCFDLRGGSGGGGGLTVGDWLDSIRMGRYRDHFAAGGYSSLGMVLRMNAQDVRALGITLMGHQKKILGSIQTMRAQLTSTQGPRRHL
T19 sequence (P45983 1-384 isoform P45983-2): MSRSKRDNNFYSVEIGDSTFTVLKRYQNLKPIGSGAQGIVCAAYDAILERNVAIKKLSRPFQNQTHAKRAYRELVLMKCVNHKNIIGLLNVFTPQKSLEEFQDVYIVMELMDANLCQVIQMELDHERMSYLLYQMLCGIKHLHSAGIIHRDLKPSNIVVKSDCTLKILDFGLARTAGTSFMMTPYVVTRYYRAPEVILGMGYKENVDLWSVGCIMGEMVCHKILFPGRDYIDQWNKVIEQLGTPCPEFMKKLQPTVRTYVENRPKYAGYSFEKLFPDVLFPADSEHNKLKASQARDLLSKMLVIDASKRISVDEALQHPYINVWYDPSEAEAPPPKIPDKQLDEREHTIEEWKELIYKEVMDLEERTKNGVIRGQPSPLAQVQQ
T8 sequence (P29274 whole entry): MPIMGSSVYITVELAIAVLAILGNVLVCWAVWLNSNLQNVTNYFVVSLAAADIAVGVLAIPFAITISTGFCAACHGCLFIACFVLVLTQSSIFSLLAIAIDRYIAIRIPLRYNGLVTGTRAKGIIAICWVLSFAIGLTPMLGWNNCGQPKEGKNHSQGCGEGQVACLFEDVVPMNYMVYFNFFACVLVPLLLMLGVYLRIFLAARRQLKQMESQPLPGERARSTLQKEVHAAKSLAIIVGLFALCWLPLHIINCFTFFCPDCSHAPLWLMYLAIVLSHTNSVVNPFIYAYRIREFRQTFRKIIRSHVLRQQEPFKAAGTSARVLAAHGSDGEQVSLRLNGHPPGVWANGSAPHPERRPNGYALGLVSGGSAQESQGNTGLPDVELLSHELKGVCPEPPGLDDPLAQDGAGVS

Compound: O=C1NCCC12CCN(c1c(Cl)cncc1-c1ccc(N3CCOCC3)cc1)CC2 [Compound 44, 8-(3-Chloro-5-(4-morpholin-4-ylphenyl)pyridin-4-yl)-2,8-diazaspiro[4.5]decan-1-one]
- inhibition at 10 µM (B2 (h)): 5%
- remaining activity at 1 µM (IRAK1): 4%
- remaining activity at 1 µM (ALK): -6%
- remaining activity at 1 µM (FLT4): -5%
- inhibition at 10 µM (5-HT7 (h)): 9%
- remaining activity at 1 µM (EEF-2K): -8%
- remaining activity at 1 µM (IR, ACTIVATED): 17%
- inhibition at 10 µM (A2A (h)): 4%
- remaining activity at 1 µM (PKG1BETA): -4%
- remaining activity at 1 µM (ABL): 4%
- remaining activity at 1 µM (NEK3): 18%
- inhibition at 10 µM (A1 (h)): -11%
- remaining activity at 1 µM (SGK2): -5%
- remaining activity at 1 µM (EPHA5): 11%
- remaining activity at 1 µM (ROCK-I): -7%
- remaining activity at 1 µM (TBK1): 5%
- inhibition at 10 µM (M2 (h)): 24%
- % Inhibition of Control Specific Binding (sst (non-selective)): -16%
- remaining activity at 1 µM (DAPK2): 5%
- remaining activity at 1 µM (JNK1ALPHA1): 0%
- remaining activity at 1 µM (PLK3): -17%
- remaining activity at 1 µM (BRSK2): 14%
- remaining activity at 1 µM (PRKX): 1%
- remaining activity at 1 µM (EPHA8): -3%
- remaining activity at 1 µM (EGFR): 5%
- remaining activity at 1 µM (NEK2): 3%
- remaining activity at 1 µM (HIPK3): 7%
- inhibition at 10 µM (5-HT1B): -29%
- remaining activity at 1 µM (ITK): 16%
- inhibition at 10 µM (5-HT transporter (h)): 17%
- remaining activity at 1 µM (TAO1): -2%
- remaining activity at 1 µM (PKA): 5%
- remaining activity at 1 µM (SAPK4): -2%
- remaining activity at 1 µM (PKCMU): -22%
- remaining activity at 1 µM (CAMKI): -4%
- remaining activity at 1 µM (PRK2): 17%
- remaining activity at 1 µM (AXL): -12%
- % Control (MKK4): 46%
- remaining activity at 1 µM (MUSK): 10%
- % Inhibition of Control Specific Binding (SKCa channel): -6%
- remaining activity at 1 µM (PAK2): 12%
- remaining activity at 1 µM (MAPK1): 10%
- inhibition at 10 µM [1]: -15%
- remaining activity at 1 µM (CDK3/CYCLINE): -7%
